Measured values: PubChem BioAssay (NCI)
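Assay format: 96-well plates, 48-hour exposure. At the GI50, growth is halved. TGI is the concentration that stops growth completely.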

How the values were obtained:
Assay in all cases: NCI tumour cell line growth inhibition, 48 h
DLD-1 colon = test system: DLD-1 colon
P388 leukemia = test system: P388 leukemia
M19-MEL melanoma = test system: M19-MEL melanoma
SNB-78 CNS = test system: SNB-78 CNS
DMS 273 small cell lung = test system: DMS 273 small cell lung
P388/ADR leukemia = test system: P388/ADR leukemia
SN12K1 renal = test system: SN12K1 renal
KM20L2 colon = test system: KM20L2 colon
XF 498 CNS = test system: XF 498 CNS
LXFL 529 NSCLC = test system: LXFL 529 NSCLC
RXF-631 renal = test system: RXF-631 renal

Row | SMILES | TGI (DLD-1 colon) | TGI (P388 leukemia) | TGI (M19-MEL melanoma) | TGI (SNB-78 CNS) | TGI (DMS 273 small cell lung) | TGI (P388/ADR leukemia) | TGI (SN12K1 renal) | TGI (KM20L2 colon) | TGI (XF 498 CNS) | GI50 (DLD-1 colon) | GI50 (P388 leukemia) | GI50 (M19-MEL melanoma) | GI50 (SNB-78 CNS) | GI50 (XF 498 CNS) | GI50 (DMS 273 small cell lung) | GI50 (P388/ADR leukemia) | GI50 (SN12K1 renal) | GI50 (KM20L2 colon) | TGI (LXFL 529 NSCLC) | TGI (RXF-631 renal)
1 | CC1(C)N=C(N)N=C(N)N1c1ccc(OCCCOc2ccccc2)c(Cl)c1 | > 100 µM | 10.3 µM | 15 µM | 18 µM | 1.15 µM | > 100 µM | 11.2 µM | 11.3 µM | – | – | – | – | – | – | – | – | – | – | – | –
2 | CCOC(=O)C[n+]1ccc2c([nH]c3cc(OC)ccc32)c1C | > 100 µM | > 100 µM | > 100 µM | > 100 µM | > 100 µM | > 100 µM | > 100 µM | > 100 µM | > 100 µM | – | – | – | – | – | – | – | – | – | – | –
3 | NC1CCCCC1N.O=S(=O)([O-])CCCN1CCN(CCO)CC1.O=S(=O)([O-])CCCN1CCN(CCO)CC1.[Pt+4] | > 100 µM | > 32 µM | 16.2 µM | > 86.4 µM | 19.9 µM | > 47.7 µM | > 100 µM | > 100 µM | 24.6 µM | 8.44 µM | 0.129 µM | 1.18 µM | 15.8 µM | 1.25 µM | 1.24 µM | 2.56 µM | 3.29 µM | 6.59 µM | – | –
4 | COc1ccc(N2C(=O)C(N3C(=O)C=CC3=O)C2C=O)cc1 (centres undefined) | > 100 µM | – | > 100 µM | > 100 µM | > 100 µM | – | – | > 100 µM | – | – | – | – | – | – | – | – | – | – | > 100 µM | –
5 | CCCCCCc1cn([C@H]2C[C@H](O)[C@@H](CO)O2)c(=O)[nH]c1=O | > 100 µM | > 100 µM | > 100 µM | > 100 µM | > 100 µM | > 100 µM | > 100 µM | > 100 µM | > 100 µM | – | – | – | – | – | – | – | – | – | – | –
6 | O=C1OC(c2ccccc2)=N/C1=C/N1CCCC1C(=O)O (centres undefined) | > 100 µM | – | > 100 µM | > 100 µM | > 100 µM | – | – | > 100 µM | > 100 µM | – | – | – | – | – | – | – | – | – | > 100 µM | > 100 µM
7 | COc1cccc2c1[C@]1(O)C(O)CCCC21 (some centres undefined) | > 100 µM | – | > 100 µM | > 100 µM | > 100 µM | – | – | > 100 µM | – | – | – | – | – | – | – | – | – | – | > 100 µM | –
8 | O=C1OC2C=CC1C1(CCOC1=O)C2 (centres undefined) | > 100 µM | – | > 100 µM | – | > 100 µM | – | – | > 100 µM | > 100 µM | – | – | – | – | – | – | – | – | – | > 100 µM | –
9 | Nc1ccc(-c2nc3ccccc3s2)cc1 | 77.3 µM | – | > 100 µM | 98.2 µM | – | – | – | > 100 µM | – | – | – | – | – | – | – | – | – | – | 33.4 µM | 46.2 µM
10 | CN(CCN(C)C(=O)CCn1ccc(=O)[nH]c1=O)C(=O)CCn1ccc(=O)[nH]c1=O | – | – | > 100 µM | > 100 µM | > 100 µM | – | – | > 100 µM | > 100 µM | – | – | – | – | – | – | – | – | – | > 100 µM | –
11 | COc1cc(C2(C)SCCCS2)c(I)c(OC)c1OC | > 100 µM | – | > 100 µM | > 100 µM | > 100 µM | – | – | > 100 µM | > 100 µM | – | – | – | – | – | – | – | – | – | > 100 µM | > 100 µM
12 | CC(=O)Nc1ccc(/C=C(\NC(=O)c2ccccc2)C(=O)NNS(=O)(=O)c2ccc(C)cc2)cc1 | > 100 µM | – | > 100 µM | > 100 µM | 34.8 µM | – | – | > 100 µM | > 100 µM | – | – | – | – | – | – | – | – | – | > 100 µM | –
13 | c1ccc(-c2[nH]c(-c3ccccc3)c(-c3cnccn3)c2-c2cnccn2)cc1 | > 100 µM | – | > 100 µM | > 100 µM | > 100 µM | – | – | > 100 µM | > 100 µM | – | – | – | – | – | – | – | – | – | – | –
14 | CC(=O)[C@H]1CCC2[C@@H]3CC=C4C(O)C(OS(=O)(=O)O)CC[C@]4(C)C3CC[C@@]21C (some centres undefined) | > 100 µM | > 100 µM | > 100 µM | > 100 µM | > 100 µM | > 100 µM | > 100 µM | > 100 µM | – | – | – | – | – | – | – | – | – | – | – | –
15 | CC(=O)O[C@H]1C(=O)[C@@]2(C)C(C(OC(=O)c3ccccc3)[C@]3(O)CC(OC(=O)C(O)C(NC(=O)c4ccccc4)c4ccc(C)cc4)C(C)=C1C3(C)C)[C@]1(OC(C)=O)CO[C@@H]1C[C@@H]2O (some centres undefined) | > 25 µM | – | 3.57 µM | > 25 µM | 2.89 µM | – | – | 0.0981 µM | 0.134 µM | – | – | – | – | – | – | – | – | – | 11.1 µM | –
16 | C=C1CC(OC)(C(O)C(=O)N[C@H]2OCO[C@H]3C2O[C@H](C[C@H](O)COC)C(C)(C)C3OC)O[C@H](C)[C@@H]1C (some centres undefined) | – | > 0.00772 µM | > 0.00772 µM | > 0.00772 µM | – | – | > 0.00772 µM | > 0.00772 µM | > 0.00772 µM | – | – | – | – | – | – | – | – | – | – | –
